Assay results as given in patent publication US4633014A, “Substituted 3-hydrazinopropionates” (priority 1983, dated 1986).

Experiments:
white mice = test: in vivo
Procedure: (§1) The study of the effect provided by the compounds according to the present invention on the cardio-vascular system was carried out in experiments on white mice. The specific (antiarrhythmic) effect and acute toxicity were studied.
(§2) The acute toxicity of the compounds according to the present invention was determined in experiments on white mice with a mass of 20-25 g. The test compounds were administered intraperitoneally in the form of aqueous solutions or suspensions in Twin-80. Observation over the test animals was effected for 10 days.

in vivo = conditions: mouse, in vivo, ip
Procedure: as §1, §2

[1] = test system: arrhythmia induced by an intravenous administration of calcium chloride; test: Antiarrhythmic activity on a model of arrhythmia induced by intravenous calcium chloride (antagonism to calcium) in mice; type: in vivo; conditions: white mice, 20-40 minutes before
Procedure: The specific (antiarrhythmic) effect and acute toxicity were studied.
The antiarrhythmic activity of the compounds according to the present invention was studied on a model of arrhythmia induced by an intravenous administration of calcium chloride. In experiments on white mice of both sexes with a mass of 18-25 g narcotized by urethane (1,200 mg/kg intraperitoneally) ECG in the second standard lead was recorded. A 2% solution of calcium chloride was introduced into the tail vein at a constant rate (0.01 ml for 2 sec). The dose of calcium chloride causing arrhythmia and the dose causing the heart arrest were determined. In the test groups the test compounds were administered intraperitoneally 20-40 minutes before the beginning of the experiment.

Compound | Relative toxisity to quinidine (white mice; mouse, in vivo, ip, 14400 min) | LD50 at 240 h (in vivo) [mg/kg] | Dose of calcium chloride causing arrythmia in animals under experiment ([1]; intraperitoneal dose 5 mg/kg) | Dose of calcium chloride causing death in animals under experiment ([1]; intraperitoneal dose 5 mg/kg) | Dose of calcium chloride causing arrythmia in animals under experiment ([1]; intraperitoneal dose 15 mg/kg) | Dose of calcium chloride causing death in animals under experiment ([1]; intraperitoneal dose 15 mg/kg) | Dose of calcium chloride causing arrythmia in animals under experiment ([1]; intraperitoneal dose 25 mg/kg) | Dose of calcium chloride causing death in animals under experiment ([1]; intraperitoneal dose 25 mg/kg) | Relative toxisity to quinidine (white mice; white mice, intraperitoneal, relative to quinidine)
CNC(=S)N(CCC(N)=O)N(C)C [I-17] | 18,3 | 2850 | 87,5 mg/kg | 138 mg/kg | 102,0 mg/kg | 115 mg/kg | – | – | –
C=CCNC(=S)N(CCC(N)=O)N(C)C [I-18] | 18,6 | 2900 | 127 mg/kg | 160,5 mg/kg | 153 mg/kg | 168 mg/kg | – | – | –
CN(C)N(CCC(N)=O)C(=S)Nc1ccccc1 [I-19, 3-(2,2-dimethyl-1-phenylthiocarbamoylhydrazino)propionamide] | 11,2 | 1750 | 98,3 mg/kg | 112,0 mg/kg | 110,5 mg/kg | 130,0 mg/kg | – | – | –
CC(CN(C(=S)Nc1ccccc1)N(C)C)C(N)=O (stereo not drawn) [I-20, 3-(2,2-dimethyl-1-phenylthiocarbamoylhydrazino)2-methylpropionamide] | 8,6 | 1340 | 102 mg/kg | 123 mg/kg | 106,4 mg/kg | 118,6 mg/kg | – | – | –
CNC(=O)N(CCC#N)N(C)C [I-21, 3-(2,2-dimethyl-1-methylcarbamoylhydrazino)propionitrile] | 11,5 | 1800 | 87,5 mg/kg | 111,5 mg/kg | – | – | 113,6 mg/kg | 128,0 mg/kg | –
C=CCNC(=S)N(CCC#N)N(C)C [I-22, 3-(2,2-dimethyl-1-allylthiocarbamoylhydrazino)propionitrile] | 9,3 | 1450 | 92,5 mg/kg | 108,0 mg/kg | – | – | 130,0 mg/kg | 146,0 mg/kg | –
CN(C)N(CCC#N)C(=S)Nc1ccccc1 [I-23, 3-(2,2-dimethyl-1-phenylthiocarbamoylhydrazino)propionitrile] | 10,7 | 1680 | 86 mg/kg | 101,3 mg/kg | – | – | 117,7 mg/kg | 119,0 mg/kg | –
COC(=O)CCN(C(C)=O)N(C)C [I-24, 3-(2,2-Dimethyl-1-acetylhydrazino)methylpropionate] | 8,3 | 1300 | 108,0 mg/kg | 132,0 mg/kg | 116,5 mg/kg | 140,3 mg/kg | – | – | –
CCCC(=O)N(CCC(=O)OC)N(C)C [I-25, 3-(2,2-dimethyl-1-butyrylhydrazino)-methylpropionate] | 11,2 | 1750 | 105,1 mg/kg | 112,3 mg/kg | – | – | 77,0 mg/kg | 95,0 mg/kg | –
CCCCCC(=O)N(CCC(=O)OC)N(C)C [I-26, 3-(2,2-dimethyl-1-hexanoylhydrazino)methylpropionate] | – | 630 | 111,3 mg/kg | 138,0 mg/kg | 107,6 mg/kg | 140,0 mg/kg | – | – | 4,0
CCCCCCCCCCCCCCCC(=O)N(CCC(=O)OC)N(C)C [I-27, 3-(2,2-dimethyl-1-hexadecanoylhydrazino)methylpropionate] | 15,2 | 2380 | 92,7 mg/kg | 118,0 mg/kg | 109,0 mg/kg | 120,6 mg/kg | – | – | –
CCCCCCCCCCCCCCCCCC(=O)N(CCC(=O)OC)N(C)C [I-28, 3-(2,2-dimethyl-1-octadecanoylhydrazino)methylpropionate] | 39,4 | 6150 | 90,1 mg/kg | 108 mg/kg | – | – | 133,8 mg/kg | 143 mg/kg | –
COC(=O)CCN(C(=O)c1ccccc1)N(C)C [I-29, 3-(2,2-dimethyl-1-benzoylhydrazino)methylpropionate] | 22,4 | 3500 | 97,6 mg/kg | 109,5 mg/kg | – | – | 140,2 mg/kg | 142,0 mg/kg | –
COC(=O)CCN(C(=O)Cc1ccccc1)N(C)C [I-30, 3-(2,2-dimethyl-1-benzylcarbonylhydrazino)methylpropionate] | 7,6 | 1200 | 94,0 mg/kg | 120,5 mg/kg | 102,0 mg/kg | 125,0 mg/kg | – | – | –
COC(=O)CCN(C(=O)c1ccccc1F)N(C)C [I-31, 3-(2,2-dimethyl-I-(2'-fluorophenylcarbonyl)hydrazino)methylpropionate] | 10,2 | 1600 | 88,5 mg/kg | 109,0 mg/kg | 100,5 mg/kg | 112,5 mg/kg | – | – | –
COC(=O)CCN(C(=O)c1ccc(Br)cc1)N(C)C [I-32, 3-(2,2-dimethyl-1-(4'-bromophenylcarbonyl)hydrazino)methylpropionate] | 10,7 | 1680 | 90,3 mg/kg | 105,5 mg/kg | 100,0 mg/kg | 110,0 mg/kg | – | – | –
COC(=O)CCN(C(=O)c1ccccc1COC(=O)c1ccccc1)N(C)C [I-33] | 18,2 | 2850 | 87,5 mg/kg | 108,6 mg/kg | 111,0 mg/kg | 132,5 mg/kg | – | – | –
